Experimental data reported in US20240190904A1, “Heteroaryl compounds as inhibitors of RIP2 kinase, composition and application thereof” (Accro Bioscience (HK) Limited, priority 2021, published 2024).

Legend:
[1] = Pharmacokinetic evaluation in rats; format: in vivo; conditions: for AUC / Vd / clearance / half-life / Cmax / Tmax: male, plasma; for AUC / Vd / clearance / half-life / Cmax / Tmax / F: rat
Description: The rat pharmacokinetic characteristics of compounds were tested by standard protocols. The candidate compounds were made into clear solution for single intravenous injection (i.v.) and suspension for oral administration (p.o.). Intravenous vehicle is 5% DMSO+95% Saline while oral vehicle is 0.5% CMCNa. The experiment used 9 male rats and 3 rats for intravenous at a dose of 2 mg/kg. Plasma samples were collected at 0 h (before dosing) and 0.083 h, 0.25 h, 0.5 h, 1 h, 2 h, 4 h, 8 h, 24 h after dosing. 3 rats were orally administrated at a dose of 10 mg/kg and 3 rats were orally administrated at a dose of 100 mg/kg. Plasma samples were collected at 0 h (before dosing) and 0.25 h, 0.5 h, 1 h, 2 h, 4 h, 6 h, 8 h, 24 h after dosing.
(§1) Blood samples were placed in tubes containing K2-EDTA and stored on ice until centrifuged. The blood samples were centrifuged at 6800 g for 6 minutes at 2-8° C. within 1 h after collected and stored frozen at approximately −80° C.
(§2) The analytical results were confirmed using quality control samples for intra-assay variation. The accuracy of >66.7% of the quality control samples and 50% of all QC samples at each concentration level were between 80-120% of the known value(s).
(§3) Standard set of parameters including Area Under the Curve (AUC(0-t) and AUC(0-∞)), elimination half-live (T1/2), maximum plasma concentration (Cmax), time to reach maximum plasma concentration (Tmax) were calculated using noncompartmental analysis modules in FDA certified pharmacokinetic program Phoenix WinNonlin 7.0 (Pharsight, USA) by the Study Director.

[2] = Pharmacokinetic evaluation in beagle dog; format: in vivo; conditions: for AUC / Vd / clearance / half-life / Cmax / Tmax: plasma
Description: The beagle dog pharmacokinetic characteristics of compounds were tested by standard protocols. The candidate compounds were made into clear solution for single intravenous injection (i.v.) and suspension for oral administration (p.o.). Intravenous vehicle is 5% DMSO+95% Saline while oral vehicle is 0.5% CMCNa. The experiment used 9 dogs. The dogs for intravenous at a dose of 1 mg/kg. Plasma samples were collected at 0 h (before dosing) and 0.083 h, 0.25 h, 0.5 h, 1 h, 2 h, 4 h, 8 h, 24 h after dosing. Three dogs were orally administrated at a dose of 5 mg/kg. Another 3 dogs were orally administrated at a dose of 15 mg/kg or 30 mg/kg. Plasma samples were collected at 0 h (before dosing) and 0.25 h, 0.5 h, 1 h, 2 h, 4 h, 6 h, 8 h, 24 h after dosing.
as §1, §2, §3

Row | SMILES | plasma exposure and bioavailability in rat (in words) [1] | AUC ([1]; iv, i.v. 2 mg/kg) [ng·h/mL] | Vd ([1]; iv, i.v. 2 mg/kg) [L/kg] | clearance ([1]; iv, i.v. 2 mg/kg) [mL/min/kg] | half-life ([1]; iv, i.v. 2 mg/kg) [h] | AUC ([1]; po, p.o. 10 mg/kg) [ng·h/mL] | Cmax ([1]; po, p.o. 10 mg/kg) [ng/mL] | Tmax ([1]; po, p.o. 10 mg/kg) [h] | Cmax ([1]; po, p.o. 100 mg/kg) [ng/mL] | Tmax ([1]; po, p.o. 100 mg/kg) [h] | F ([1]; p.o. 10 mg/kg) [%] | F ([1]; p.o. 100 mg/kg) [%] | plasma exposure and bioavailability in beagle dog (in words) [2] | F ([2]; p.o. 5 mg/kg) [%] | AUC ([2]; iv, i.v. 1 mg/kg) [ng·h/mL] | Vd ([2]; iv, i.v. 1 mg/kg) [L/kg] | clearance ([2]; iv, i.v. 1 mg/kg) [mL/min/kg] | half-life ([2]; iv, i.v. 1 mg/kg) [h] | AUC ([2]; po, p.o. 5 mg/kg) [ng·h/mL] | Cmax ([2]; po, p.o. 5 mg/kg) [ng/mL] | also measured
1 | COc1cc2nccc(Nc3ccc4scnc4c3)c2cc1P(C)(C)=O [A6] | excellent plasma exposure and bioavailability | 7890 | 0.6 | 4.2 | 1.7 | 18800 | 3320 | 3.3 | 68400 | 4.7 | 48 | 185 | excellent plasma exposure and bioavailability | 131 | 1640 | 1.7 | 9.5 | 2.1 | 10800 | 2190 | AUC ([1]; po, p.o. 100 mg/kg): 729000 ng·h/mL; F ([2]; p.o. 30 mg/kg): 184%; Tmax ([2]; po, p.o. 5 mg/kg): 0.7 h; AUC ([2]; po, p.o. 30 mg/kg): 90800 ng·h/mL; Cmax ([2]; po, p.o. 30 mg/kg): 8630 ng/mL; Tmax ([2]; po, p.o. 30 mg/kg): 2.7 h
2 | CP(C)(=O)c1cc2c(Nc3ccc4scnc4c3)ccnc2cc1OC(F)(F)F [A24] | excellent plasma exposure and bioavailability | 26500 | 0.19 | 1.2 | 18 | 248000 | 20400 | 1.8 | 197000 | 24 | 187 | 244 | excellent plasma exposure and bioavailability | 212 | 3800 | 0.7 | 4.3 | 1.9 | 40300 | 9720 | F ([2]; p.o. 15 mg/kg): 88%; Tmax ([2]; po, p.o. 5 mg/kg): 1.1 h; AUC ([2]; po, p.o. 15 mg/kg): 50400 ng·h/mL; Cmax ([2]; po, p.o. 15 mg/kg): 13300 ng/mL; Tmax ([2]; po, p.o. 15 mg/kg): 3 h
